Calls of active or inactive are those of the source.
Tests used:
[1] = Cytotoxicity against mouse RAW264.7 cells assessed as cell viability at 128 uM incubated for 4 hrs by MTT assay relative to control; format: toxicity, cell-based; settings: read-out: Activity
Bacteria [2] = assay: Antibacterial activity against bacterial cells at 1 to 128 uM in presence of CaCl; format: functional, organism-based; settings: dose 1-128 µM
Bacteria [3] = assay: Antibacterial activity against bacterial cells at 1 to 64 uM incubated for 4 hrs in presence of 50 percent serum; format: functional, organism-based; settings: dose 1-64 µM
Staphylococcus aureus [4] = assay: Antibacterial activity against methicillin-resistant Staphylococcus aureus 43300 incubated for 12 to 18 hrs by microbroth dilution method; format: functional; settings: time 12-18 hrs
Escherichia coli [5] = assay: Disruption of membrane integrity in Escherichia coli K88 at 2 uM by PI staining based flow cytometry (reference value: 0.1 %); format: functional
Pseudomonas aeruginosa [6] = assay: Antibacterial activity against Pseudomonas aeruginosa PAO1 incubated for 12 to 18 hrs by microbroth dilution method; format: functional; settings: time 12-18 hrs
Salmonella typhimurium = assay: Antibacterial activity against Salmonella typhimurium 7731 incubated for 12 to 18 hrs by microbroth dilution method; format: functional, Salmonella enterica subsp. enterica serovar Typhimurium; settings: Salmonella enterica, time 12-18 hrs
[7] = Relative hydrophobic moment of compound; format: physicochemical
[8] = Hemolytic activity against human red blood cells at 2 to 128 uM relative to control; format: toxicity, cell-based, Erythrocyte; settings: dose 2-128 µM, read-out: Activity
Staphylococcus aureus [9] = assay: Antibacterial activity against Staphylococcus aureus 29213 incubated for 12 to 18 hrs by microbroth dilution method; format: functional; settings: time 12-18 hrs
[10] = system: Lactiplantibacillus plantarum; assay: Antibacterial activity against Lactobacillus plantarum 8014 incubated for 12 to 18 hrs by microbroth dilution method; format: functional; settings: time 12-18 hrs
Escherichia coli [11] = assay: Induction of morphological changes in Escherichia coli K88 assessed as membrane folding at 2 uM incubated for 1 hr by SEM analysis; format: functional, organism-based
Bacteria [12] = assay: Antibacterial activity against bacterial cells at pH 2 to 12; format: functional
Bacteria [13] = assay: Antibacterial activity against bacterial cells at pH 12; format: functional
Bacteria [14] = assay: Antibacterial activity against bacterial cells at pH 4 to 10; format: functional
Escherichia coli [15] = assay: Antibacterial activity against Escherichia coli K88 incubated for 12 to 18 hrs by microbroth dilution method; format: functional; settings: time 12-18 hrs
Escherichia coli [16] = assay: Induction of morphological changes in Escherichia coli K88 assessed as cytoplasmic leakage at 2 uM incubated for 1 hr by TEM analysis; format: functional, organism-based
Escherichia coli [17] = assay: Antibacterial activity against Escherichia coli 1515 incubated for 12 to 18 hrs by microbroth dilution method; format: functional; settings: time 12-18 hrs
Lactococcus lactis = assay: Antibacterial activity against Lactococcus lactis NZ9000 incubated for 12 to 18 hrs by microbroth dilution method; format: functional; settings: time 12-18 hrs
Bacteria [18] = assay: Antibacterial activity against bacterial cells at pH 2; format: functional
Enterococcus faecalis = assay: Antibacterial activity against Enterococcus faecalis 29212 incubated for 12 to 18 hrs by microbroth dilution method; format: functional; settings: time 12-18 hrs
Bacteria [19] = assay: Antibacterial activity against bacterial cells at 100 degreeC at 1 to 64 uM incubated for 60 mins; format: functional, organism-based; settings: dose 1-64 µM
[20] = Effect on secondary structure of compound in PBS assessed as formation of alpha-helical conformation at 100 uM by CD analysis; format: physicochemical; settings: buffer
Staphylococcus aureus [21] = assay: Antibacterial activity against Staphylococcus aureus 25923 incubated for 12 to 18 hrs by microbroth dilution method; format: functional; settings: time 12-18 hrs
[22] = system: Lacticaseibacillus rhamnosus; assay: Antibacterial activity against Lactobacillus rhamnosus 7469 incubated for 12 to 18 hrs by microbroth dilution method; format: functional; settings: time 12-18 hrs
[23] = Cytotoxicity against porcine IPEC-J2 cells assessed as cell viability at 128 uM incubated for 4 hrs by MTT assay relative to control; format: toxicity, cell-based, Sus scrofa; settings: pig, read-out: Activity
Escherichia coli [24] = assay: Inhibition of DNA migration in Escherichia coli K88 at 64 uM incubated for 40 mins by agarose gel electrophoresis.; format: functional, organism-based
[25] = Hydrophobicity of compound; format: physicochemical
Escherichia coli [26] = assay: Induction of ROS generation in Escherichia coli K88 assessed as increase in fluorescence intensity incubated for 1 hr by DCFH-DA dye based analysis; format: functional, organism-based
Escherichia coli [27] = assay: Antibacterial activity against Escherichia coli K99 incubated for 12 to 18 hrs by microbroth dilution method; format: functional; settings: time 12-18 hrs
[28] = Antibacterial activity against Salmonella choleraesuis 21493 incubated for 12 to 18 hrs by microbroth dilution method; format: functional, Salmonella enterica subsp. enterica serovar Choleraesuis; settings: Salmonella enterica, time 12-18 hrs
[29] = system: Staphylococcus epidermidis; assay: Antibacterial activity against Staphylococcus epidermidis 12228 incubated for 12 to 18 hrs by microbroth dilution method; format: functional; settings: time 12-18 hrs
Escherichia coli [30] = assay: Induction of morphological changes in Escherichia coli K88 assessed as membrane contraction at 2 uM incubated for 1 hr by SEM analysis; format: functional, organism-based
Escherichia coli [31] = assay: Induction of resistance development in Escherichia coli K88 at sub-MIC measured after 20 passages; format: functional, organism-based
Bacteria [32] = assay: Antibacterial activity against bacterial cells at 1 to 128 uM in presence of NaCl; format: functional, organism-based; settings: dose 1-128 µM
Pseudomonas aeruginosa [33] = assay: Antibacterial activity against Pseudomonas aeruginosa 27853 incubated for 12 to 18 hrs by microbroth dilution method; format: functional; settings: time 12-18 hrs
[34] = Binding affinity to 6xHis-tagged recombinant Escherichia coli TMK assessed as dissociation constant by BLI assay
Escherichia coli [35] = assay: Antibacterial activity against Escherichia coli 078 incubated for 12 to 18 hrs by microbroth dilution method; format: functional; settings: time 12-18 hrs
Escherichia coli [36] = assay: Induction of morphological changes in Escherichia coli K88 assessed as membrane permeability at edges at 2 uM incubated for 1 hr by TEM analysis; format: functional, organism-based

H-WKKIWKPGIKKWIK-OH
16.3%: Activity (Escherichia coli [5])
16 µM: MIC (Pseudomonas aeruginosa [6]) | MIC (Bacteria [12]) | MIC (Bacteria [14]) | MIC (Escherichia coli [15]) | MIC (Escherichia coli [27]) | MIC [28]
32 µM: MIC (Salmonella typhimurium) | MIC (Bacteria [13]) | MIC (Escherichia coli [17]) | MIC (Bacteria [18]) | MIC (Pseudomonas aeruginosa [33]) | MIC (Escherichia coli [35])
128 µM: MIC (Staphylococcus aureus [4]) | MIC (Staphylococcus aureus [9]) | MIC [10] | MIC (Lactococcus lactis) | MIC (Enterococcus faecalis) | MIC (Staphylococcus aureus [21]) | MIC [22] | MIC [29]
inactive: Activity (Bacteria [2]) | Activity (Escherichia coli [11]) | Activity (Escherichia coli [16]) | Activity (Escherichia coli [30]) | Activity (Escherichia coli [31]) | Activity (Bacteria [32]) | Activity (Escherichia coli [36])
< 5%: hemolysis at up to 128 µM [8]
Active: Activity [20]
> 80%: viability at 4 h, 128 µM [1] | viability at 4 h, 128 µM [23]
0.495: Activity [25]
active: Activity (Bacteria [3]) | Activity (Bacteria [19]) | inhibition (Escherichia coli [24]) | Activity (Escherichia coli [26]) Dose-dependent-effect
0.727: Activity [7]
< 1 pM: Kd [34]
